tested on: intravesical pressure (IVP) increase induced by carbachol; test: Effect on the increase in intravesical pressure induced by carbachol in anesthetized dog; type: in vivo; conditions: anesthetized female Beagle dogs; test compound 0.010 mg/kg intravenously 30 minutes before carbachol (1.8 μg/kg)
Protocol: Effect on the Increase in Intravesical Pressure Induced by Carbachol in Anesthetized Dog
Female Beagle dogs weighing 8.0-15.0 kg were fasted for 24 hours and maintained under halothane anesthesia. A 12F Foley catheter was lubricated with water soluble jelly, inserted into the urethral orifice and advanced approximately 10 cm until the balloon tip was placed well inside the bladder. The balloon was then inflated with 5 ml of room air and catheter slowly withdrawn just part the first resistance that was felt at the bladder neck. Urine was completely drained out through the catheter, and 30 ml of biological saline was infused. The catheter was connected to pressure transducer, and intravesical pressure (IVP) was continuously recorded. The test compound was administered intravenously at 30 minutes before the administration of carbachol (1.8 μg/kg). Percent inhibition of IVP increase by test compound was calculated by dividing IVPa (IVP increase induced by carbachol after test compound administration) by IVPb (IVP increase induced by carbachol just before test compound administration).

Row | SMILES | Percent inhibition of IVP increase [%]
1 | CC(C)Sc1cc(-c2ccc(CCN[C@@H](C)[C@H](O)c3ccccc3)cc2)ccc1C(=O)O.Cl [Test Compound (1), 4′-[2-[[(1S,2R)-2-Hydroxy-1-methyl-2-phenylethyl]-amino]ethyl]-3-(isopropylthio)-4-biphenylcarboxylic acid hydrochloride] | 77
2 | CC(C)Cc1cc(-c2ccc(CCN[C@@H](C)[C@H](O)c3ccccc3)cc2)ccc1C(=O)NS(C)(=O)=O.Cl [Test Compound (2), 4′-[2-[[(1S,2R)-2-Hydroxy-1-methyl-2-phenylethyl]-amino]ethyl]-3-isobutyl-N-(methylsulfonyl)-4-biphenylcarboxamide hydrochloride] | 76
3 | CS(=O)(=O)NC(=O)c1ccc(-c2ccc(CCNC[C@H](O)c3cccnc3)cc2)cc1OC1CCCCC1.Cl.Cl [Test Compound (3), 3-(Cyclohexyloxy)-4′-[2-[[(2R)-2-hydroxy-2-(3-pyridyl)ethyl]amino]ethyl]-N-(methylsulfonyl)-4-biphenylcarboxamide dihydrochloride] | 89

Source: patent publication US7417060B2, “Aminoalcohol derivatives” (Astellas Pharma Inc., priority 2003, dated 2008)
